Entries after “also recorded” stand apart in the source; their conditions may differ.
Key:
[1] = system: MDA-MB 231 cells; test: Phase contrast microscopy of EMT/MET, Basal/metastatic model; assay type: cell-based, human; conditions: NCD38 5 μM, FIG. 7C
Procedure: Phase contrast microscopy was utilized for EMT and wound healing assays under 10× or 20× magnification of Olympus Fluorescence 1×71 microscope. Images were captured and analyzed as described above except that wound healing assay pictures were also analyzed by Image J software (Free software in Public domain developed by NIH).

[2] = system: MDA-MB 231 cells; test: FACS analysis of CD44high CD24low CSC subpopulation, Basal/metastatic model; assay type: cell-based, human; conditions: NCD38 5 μM, FIGS. 7A and B
Procedure: (§1) Cells from each well/flask were harvested by means of trypsin treatment followed by two washes with PBS. Washed cells then re-suspended in an antibody cocktail consisting anti-CD44-APC, anti-CD24-PE antibodies (details in Table 5) and Hoechst 33258 dye (final dilution of 1:1000) (Invitrogen, Carlsbad, Calif.) in 1% FCS-PBS solution. Cells re-suspended in antibody cocktail were incubated for 20 minutes at 4° C. Cells were next washed twice with PBS and re-suspended in 1% FCS-PBS solution (volume based on cell number) and kept on ice until analyzed by FACS. Forward scatter (FSC) and side scatter parameters were selected with FITC fluorochrome excited by 488 nm argonion laser, PE fluorochrome excited by 488 nm and Hoechst fluorochrome excited by 350 nm helium-cadmium UV laser.
(§2) Flow Cytometry data was produced using either BD FACS LSR Flow Cytometer (Becton Dickinson Biosciences) or BD FACS Aria™ II Flow Cytometer (Becton Dickinson Biosciences) and analyzed using the data acquisition software CellQuest Pro (Becton Dickinson Biosciences) and FlowJo (Tree Star Inc., Ashland, Oreg.) software at the MCRF facility, JCSMR, ANU, Canberra, Australia. Single colour controls were used to set compensation parameters. Isotype controls were used for all corresponding primary antibodies in each experiment. […]

[3] = system: MCF-7 cells; test: FACS analysis of CD44high CD24low CSC-like subpopulation, MCF-IM model (PMA-stimulated MCF-7); assay type: cell-based, human; conditions: NCD38 5 μM for 17 hr prior to PMA 0.65 ng/μl for 60 hours, FIGS. 6A and B
Procedure: MCF-7 cells were seeded one day before stimulation at a set density according to the experimental demand. Potential inducers of EMT were tested including Phorbol 12-Myristate 13-acetate (PMA) (Sigma-Aldrich, St. Louis, Mo.), and TGF β (R&D systems, Minneapolis, Minn.) at various concentrations and incubation length as specified in Table 6.
as §1, with “Forward scatter (FSC) and side scatter parameters were selected with FITC fluorochrome excited by 488 nm argonion laser, PE fluorochrome excited by 488 nm and Hoechst fluorochrome excited by 350 nm helium-cadmium UV laser.” left out
as §2, with “Australia.” for “Australia. Single colour controls were used to set compensation parameters. Isotype controls were used for all corresponding primary antibodies in each experiment.”

[4] = system: MCF-7 cells; test: Mammosphere assay; assay type: cell-based, human; conditions: MCF-IM model, NCD38 5 μM for 17 hr prior to PMA 0.65 ng/ml for 6 days, mammospheres larger than 60 μm counted
Procedure: The following mammosphere culture media components were purchased from StemCell Technologies Inc., BC, Canada: Mammocult Basal medium (Human) (catalogue number-05621), Mammocult Proliferation Supplements (Human) (catalogue number-05622), heparin (catalogue number-07904) and hydrocortisone (catalogue number-[…]). Hydrocortisone powder was freshly dissolved into mammocult basal medium to get 10^−4M solution on the day of experiment. 50 mL of Mammocult complete media was then prepared by addition of 45 mL Mammocult basal medium, 5 mL mammocult proliferation supplements, 100 μL of the 0.2% heparin stock, 500 μL of 10^−4M stock of hydrocortisone and 50 μL of the PNS. Mammocult complete media was either used on same day or stored for not more than 7 days at 4° C.
MCF-7 cells were grown in a 175 cm^2 cell culture flask and harvested using a cell scraper (Zellschaber, Switzerland) or FACS sorted as specified below. Importantly trypsin treatment was never used for harvesting cells as it interferes with the mammosphere assay. Harvested cells were then re-suspended in 1 mL mammocult complete media and centrifuged at 500×g for 3 minutes at 20° C. The cell pellet was then re-suspended in 1 mL mammocult complete media before counting the cells on the Vi-CELL counter. […] Mammospheres larger than 60 μm were counted per well on day 7 and pictures were taken with an Olympus microscope. […]

[5] = system: MDA-MB-231 cells; test: In vivo murine xenograft model, CSC subpopulation of tumors (FACS, CD44 mRNA); parameters: species or system BALB/c female nude mice; conditions: pargyline along with docetaxel
Procedure: (§3) To monitor the effect of LSD1 inhibitors in vivo on tumor recurrence, in vivo murine xenograft model of breast cancer recurrence was used. The MDA-MB 231 cell line model, which is one of the most robust and well-established models was used in 6 weeks old BALB/c female nude mice. 5×10^6 MDA MB 231 cells were injected in the mammary fat pad of each mouse. […] Once the tumors reach 50 mm^3 volume size (determined by caliper measurement), treatments were initiated. Mice were monitored until tumors reach 500 mm^3 and sacrificed for collection of tumors. Each treatment group consisted 14 mice each (5 mice for tumor growth curve+3 mice each for tumor collection at 3 time points-treatment start day-week 0, chemotherapy tumor reduction-approx. week 4 and until tumor reach 500 mm^3 approx. week 7). Tumor volumes were measured every week and three mice from each group were sacrificed for IHC, FACS, and RNA extraction at above mentioned three time points.
At week 7 post treatment, the remaining tumor samples were collected for flow cytometry with CD44, CD24 and Hoechst staining. Remaining sample was used for RNA extraction.
1. Tumors were collected in 5 mL of DMEM supplemented with 2.5% FCS in 15 mL tubes.
8. A total number of 2×10^5 cells were stained for CD44-APC, CD24-PE and Hoechst. […]

[6] = system: MDA-MB-231 cells; test: In vivo murine xenograft model, tumor size; parameters: species or system BALB/c female nude mice
Procedure: as §3
5. Mice were then injected with 50 μL of the Matrigel™+5×10^6 cell suspension in PBS using 26″ needles and isoflurane as an anesthetic. Each 50 μL of the mixture contains 2×10^6 MDA-MB-231 cells.
7. Measurements for tumor volume began at day 7 post injection of MDA-MB-231. Then the tumor volumes were measured daily till 15 May 2014.
Treatment of mice started at day 16 post injection of MDA-MB-231, where tumors roughly reached a volume of 50 mm^3.
Group B: 4 mg/kg of docetaxel (11 mice)
Group C: 100 mg/kg of pargyline (11 mice)
Group D: 4 mg/kg of docetaxel+100 mg/kg of pargyline (11 mice)

| SMILES | mesenchymal to epithelial transition / EMT (phase contrast microscopy) [1] | mesenchymal to epithelial transition / EMT (phase contrast microscopy) ([1]; listed as NCD-38) | CSC formation (CD44high CD24low CSC-like subpopulation) by FACS [2] | CSC formation (CD44high CD24low CSC-like subpopulation) by FACS ([2]; listed as NCD-38) | CSC formation (CD44high CD24low CSC-like subpopulation) monitored by FACS [3] | CSC formation (CD44high CD24low CSC-like subpopulation) monitored by FACS ([3]; listed as NCD-38) | CSC formation monitored by mammosphere assay [4] | CSC formation monitored by mammosphere assay ([4]; listed as NCD-38) | CSC subpopulation measured by transcript (CD44 mRNA expression of dissected tumors) ([5]; real-time PCR, FIG. 10B) | CSC subpopulation of tumors measured by FACS ([5]; seven weeks of treatment, FIG. 10A) | tumor size ([6]; pargyline 100 mg/kg in combination with docetaxel 4 mg/kg, mice xenograft, FIG. 8 (week four), FIG. 9) | tumor volume ([6]; pargyline in combination with docetaxel, after seven weeks of treatment initiation, FIG. 9B) | tumor weight ([6]; pargyline in combination with docetaxel, after seven weeks of treatment, FIG. 9A) |
| --- | --- | --- | --- | --- | --- | --- | --- | --- | --- | --- | --- | --- | --- |
| O=C(N[C@@H](CCCCN[C@@H]1C[C@H]1c1ccccc1)C(=O)NCc1cccc(Cl)c1)c1ccc(-c2ccccc2)cc1.O=C(O)C(F)(F)F [NCD38] | inhibit EMT | conversion of mesenchymal cells in to epithelial cells | inhibits CD44 high CD24 low-CSC-like subpopulation | decrease of CSC formation | inhibits CD44 high CD24 low-CSC-like subpopulation | inhibition CSC formation | reduce mammosphere formation | inhibition CSC formation | – | – | – | – | – |
| C#CCN(C)Cc1ccccc1 [pargyline] | – | – | – | – | – | – | – | – | reduced CSC subpopulation | reduced CSC subpopulation; also recorded: reduces cancer stem cells | reduced tumor size; also recorded: reduces size of tumor | reduces volume and weight of tumor | reduces volume and weight of tumor |
